Reference: ChEMBL document CHEMBL1138920, “Putative therapeutic agents for the learning and memory deficits of people with Down syndrome” (Bioorg Med Chem Lett, 2006)
pIC50: −log10 of the molar value. Calls of active or inactive are those of the source. The rule behind the calls is not given here.

How the values were obtained:
[1] = molecular target: Dual specificity tyrosine-phosphorylation-regulated kinase 1A (Mus musculus) (UniProt Q61214); experiment: Inhibition of mouse Dyrk1A autophosphorylation in HEk293 cells at 10 uM; assay type: cell-based
[2] = molecular target: Dual specificity tyrosine-phosphorylation-regulated kinase 1A (Mus musculus, UniProt Q61214); experiment: Inhibition of mouse Dyrk1A autophosphorylation in HEk293 cells; assay type: cell-based
[3] = molecular target: Tyrosine-protein kinase Lck (Homo sapiens) (UniProt P06239); experiment: Activity against Lck at 10 uM in the presence of 100 uM ATP relative to control
Sequence of Tyrosine-protein kinase Lck (Homo sapiens) (P06239 2-509 limits assumed): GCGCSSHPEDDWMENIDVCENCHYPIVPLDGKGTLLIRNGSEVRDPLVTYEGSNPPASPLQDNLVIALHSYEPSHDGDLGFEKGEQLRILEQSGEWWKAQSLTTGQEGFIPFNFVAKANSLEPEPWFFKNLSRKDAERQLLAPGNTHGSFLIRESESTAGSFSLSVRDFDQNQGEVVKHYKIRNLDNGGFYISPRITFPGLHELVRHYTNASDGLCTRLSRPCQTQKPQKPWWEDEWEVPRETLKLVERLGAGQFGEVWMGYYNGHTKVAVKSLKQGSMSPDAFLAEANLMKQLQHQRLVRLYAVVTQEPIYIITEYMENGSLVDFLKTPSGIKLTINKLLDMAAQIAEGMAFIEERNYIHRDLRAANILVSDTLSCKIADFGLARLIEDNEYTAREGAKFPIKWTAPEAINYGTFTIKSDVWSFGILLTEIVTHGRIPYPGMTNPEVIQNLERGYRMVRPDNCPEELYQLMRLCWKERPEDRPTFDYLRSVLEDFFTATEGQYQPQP

[4] = molecular target: Glycogen synthase kinase-3 beta (Homo sapiens) (UniProt P49841); experiment: Activity against GSK3-beta at 10 uM in the presence of 100 uM ATP relative to control
Sequence of Glycogen synthase kinase-3 beta (Homo sapiens) (P49841 whole entry, looked up): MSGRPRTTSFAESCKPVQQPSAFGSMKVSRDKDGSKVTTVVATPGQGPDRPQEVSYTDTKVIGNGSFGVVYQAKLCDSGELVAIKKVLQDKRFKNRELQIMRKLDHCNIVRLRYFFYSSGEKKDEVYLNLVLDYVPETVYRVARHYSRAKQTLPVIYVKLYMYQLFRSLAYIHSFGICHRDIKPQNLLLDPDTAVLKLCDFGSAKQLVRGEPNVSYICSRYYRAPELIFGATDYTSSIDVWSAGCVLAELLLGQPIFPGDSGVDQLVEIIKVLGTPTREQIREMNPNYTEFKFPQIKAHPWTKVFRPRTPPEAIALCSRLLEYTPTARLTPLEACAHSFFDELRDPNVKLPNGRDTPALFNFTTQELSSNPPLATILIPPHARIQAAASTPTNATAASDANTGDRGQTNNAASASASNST

[5] = molecular target: Dual specificity protein kinase CLK3 (Homo sapiens) (UniProt P49761); experiment: Activity against CLK3 at 10 uM in the presence of 100 uM ATP relative to control
Sequence of Dual specificity protein kinase CLK3 (Homo sapiens) (P49761 whole entry, looked up): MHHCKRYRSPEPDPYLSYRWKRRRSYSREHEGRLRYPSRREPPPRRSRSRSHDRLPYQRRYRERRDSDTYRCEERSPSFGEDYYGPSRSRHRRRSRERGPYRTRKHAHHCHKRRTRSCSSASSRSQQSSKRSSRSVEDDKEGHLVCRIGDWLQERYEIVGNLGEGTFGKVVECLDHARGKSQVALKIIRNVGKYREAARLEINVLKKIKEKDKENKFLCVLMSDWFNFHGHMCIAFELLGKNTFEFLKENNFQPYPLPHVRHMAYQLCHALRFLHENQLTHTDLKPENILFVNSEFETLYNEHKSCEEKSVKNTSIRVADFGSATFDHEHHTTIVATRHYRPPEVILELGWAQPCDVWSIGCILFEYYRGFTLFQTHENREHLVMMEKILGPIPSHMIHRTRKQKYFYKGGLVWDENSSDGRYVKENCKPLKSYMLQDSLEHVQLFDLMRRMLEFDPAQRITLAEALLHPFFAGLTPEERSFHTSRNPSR

[6] = molecular target: Tyrosine-protein kinase ABL1 (Homo sapiens) (UniProt P00519); experiment: Activity against Abl at 10 uM in the presence of 100 uM ATP relative to control
Sequence of Tyrosine-protein kinase ABL1 (Homo sapiens) (P00519 whole entry): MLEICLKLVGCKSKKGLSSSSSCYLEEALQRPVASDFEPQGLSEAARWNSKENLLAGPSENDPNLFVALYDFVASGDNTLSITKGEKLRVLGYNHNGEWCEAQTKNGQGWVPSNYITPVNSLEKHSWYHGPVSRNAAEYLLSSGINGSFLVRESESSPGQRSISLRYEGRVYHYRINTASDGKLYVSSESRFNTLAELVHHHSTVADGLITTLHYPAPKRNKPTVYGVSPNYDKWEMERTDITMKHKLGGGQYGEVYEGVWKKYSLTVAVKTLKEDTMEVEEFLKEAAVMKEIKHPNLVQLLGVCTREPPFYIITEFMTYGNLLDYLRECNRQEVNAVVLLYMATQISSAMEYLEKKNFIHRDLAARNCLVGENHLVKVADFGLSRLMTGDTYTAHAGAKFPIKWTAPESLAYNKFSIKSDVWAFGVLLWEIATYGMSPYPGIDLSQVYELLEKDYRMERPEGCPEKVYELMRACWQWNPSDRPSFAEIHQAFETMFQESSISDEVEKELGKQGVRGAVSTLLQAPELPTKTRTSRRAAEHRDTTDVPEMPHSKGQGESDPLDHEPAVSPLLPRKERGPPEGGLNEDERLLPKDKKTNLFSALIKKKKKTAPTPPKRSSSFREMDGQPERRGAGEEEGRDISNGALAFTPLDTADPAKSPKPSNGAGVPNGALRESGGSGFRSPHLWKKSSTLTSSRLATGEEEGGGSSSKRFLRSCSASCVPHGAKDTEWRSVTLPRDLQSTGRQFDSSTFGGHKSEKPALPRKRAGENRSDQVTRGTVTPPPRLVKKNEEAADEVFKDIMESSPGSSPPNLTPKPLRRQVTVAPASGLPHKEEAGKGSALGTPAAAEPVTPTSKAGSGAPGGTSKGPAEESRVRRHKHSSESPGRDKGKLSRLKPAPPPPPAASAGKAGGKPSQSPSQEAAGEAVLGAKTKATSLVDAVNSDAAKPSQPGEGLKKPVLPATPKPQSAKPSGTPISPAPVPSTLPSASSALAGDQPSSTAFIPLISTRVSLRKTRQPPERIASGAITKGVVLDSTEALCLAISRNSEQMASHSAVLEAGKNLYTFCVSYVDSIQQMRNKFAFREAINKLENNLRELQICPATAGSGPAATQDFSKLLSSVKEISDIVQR

[7] = molecular target: Mitogen-activated protein kinase 1 (Homo sapiens) (UniProt P28482); experiment: Activity against MAPK2 at 10 uM in the presence of 100 uM ATP relative to control
Sequence of Mitogen-activated protein kinase 1 (Homo sapiens) (P28482 whole entry): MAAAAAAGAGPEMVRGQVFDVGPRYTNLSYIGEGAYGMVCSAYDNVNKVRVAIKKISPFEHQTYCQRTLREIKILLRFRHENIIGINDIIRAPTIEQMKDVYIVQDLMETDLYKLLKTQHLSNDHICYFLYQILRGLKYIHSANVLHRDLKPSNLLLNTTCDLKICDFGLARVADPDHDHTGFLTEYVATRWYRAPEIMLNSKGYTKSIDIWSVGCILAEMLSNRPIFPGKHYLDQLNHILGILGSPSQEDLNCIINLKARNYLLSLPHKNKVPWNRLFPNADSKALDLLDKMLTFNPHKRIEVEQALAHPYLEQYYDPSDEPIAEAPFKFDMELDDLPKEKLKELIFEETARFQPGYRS

[8] = molecular target: cAMP-dependent protein kinase (PKA) (Homo sapiens) (UniProt P22694+P17612+P22612); experiment: Activity against PKA at 10 uM in the presence of 100 uM ATP relative to control; assay type: protein assay
[9] = molecular target: Cyclin-dependent kinase 5/CDK5 activator 1 (Homo sapiens) (UniProt Q00535+Q15078); experiment: Activity against CDK5/p35 at 10 uM in the presence of 100 uM ATP relative to control; assay type: protein-complex assay
Sequence of Cyclin-dependent kinase 5/CDK5 activator 1 (Homo sapiens) (Q00535 whole entry): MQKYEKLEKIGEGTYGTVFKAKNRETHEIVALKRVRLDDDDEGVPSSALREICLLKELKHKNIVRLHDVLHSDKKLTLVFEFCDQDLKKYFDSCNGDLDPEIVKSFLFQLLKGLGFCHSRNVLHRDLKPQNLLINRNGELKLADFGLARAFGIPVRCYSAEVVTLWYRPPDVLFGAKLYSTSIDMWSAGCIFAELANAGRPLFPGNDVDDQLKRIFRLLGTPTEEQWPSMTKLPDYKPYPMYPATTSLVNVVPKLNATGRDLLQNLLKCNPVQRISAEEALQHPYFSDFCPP
Sequence of Cyclin-dependent kinase 5/CDK5 activator 1 (Homo sapiens) (Q15078 99-307 partner limits assumed): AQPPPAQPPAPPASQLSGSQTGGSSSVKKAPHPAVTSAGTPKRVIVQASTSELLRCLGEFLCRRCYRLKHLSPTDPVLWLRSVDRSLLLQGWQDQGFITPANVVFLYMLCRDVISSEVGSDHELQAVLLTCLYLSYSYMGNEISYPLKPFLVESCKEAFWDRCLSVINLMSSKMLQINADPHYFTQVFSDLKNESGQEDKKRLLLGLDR

[10] = molecular target: T1, Dual specificity tyrosine-phosphorylation-regulated kinase 2 (Homo sapiens) (UniProt Q92630); experiment: Activity against DYRK2 at 10 uM in the presence of 100 uM ATP relative to control
T1 sequence (whole entry): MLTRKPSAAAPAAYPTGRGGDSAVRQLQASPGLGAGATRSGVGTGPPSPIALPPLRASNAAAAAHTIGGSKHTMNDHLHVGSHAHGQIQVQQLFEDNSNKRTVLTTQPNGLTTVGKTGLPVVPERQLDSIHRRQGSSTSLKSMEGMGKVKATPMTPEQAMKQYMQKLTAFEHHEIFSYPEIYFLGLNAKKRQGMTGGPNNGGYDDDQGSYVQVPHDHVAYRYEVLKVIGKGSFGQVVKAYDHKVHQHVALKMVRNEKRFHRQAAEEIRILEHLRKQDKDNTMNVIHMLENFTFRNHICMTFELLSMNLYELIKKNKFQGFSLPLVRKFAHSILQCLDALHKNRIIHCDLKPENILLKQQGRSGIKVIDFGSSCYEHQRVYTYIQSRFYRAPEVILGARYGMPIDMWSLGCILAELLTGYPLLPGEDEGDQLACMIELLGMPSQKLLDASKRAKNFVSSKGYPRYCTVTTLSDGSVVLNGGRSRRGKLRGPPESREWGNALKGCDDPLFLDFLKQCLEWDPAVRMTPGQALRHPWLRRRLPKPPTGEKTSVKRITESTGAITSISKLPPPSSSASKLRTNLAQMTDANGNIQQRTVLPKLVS

[11] = molecular target: T2, MAP kinase-activated protein kinase 5 (Homo sapiens) (UniProt Q8IW41); experiment: Activity against PRAK at 10 uM in the presence of 100 uM ATP relative to control
T2 sequence (whole entry): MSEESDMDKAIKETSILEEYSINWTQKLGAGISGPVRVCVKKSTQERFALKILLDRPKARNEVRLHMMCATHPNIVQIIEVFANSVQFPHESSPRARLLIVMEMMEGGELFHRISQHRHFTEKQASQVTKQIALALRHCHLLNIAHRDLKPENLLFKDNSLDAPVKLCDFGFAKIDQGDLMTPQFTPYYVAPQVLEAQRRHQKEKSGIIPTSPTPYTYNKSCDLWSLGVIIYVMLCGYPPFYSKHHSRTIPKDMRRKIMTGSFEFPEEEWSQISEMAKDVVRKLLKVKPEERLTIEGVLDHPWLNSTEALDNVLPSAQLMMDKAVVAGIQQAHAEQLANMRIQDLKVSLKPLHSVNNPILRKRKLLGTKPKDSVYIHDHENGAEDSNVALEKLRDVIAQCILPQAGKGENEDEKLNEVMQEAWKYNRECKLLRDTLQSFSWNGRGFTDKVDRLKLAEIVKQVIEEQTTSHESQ

[12] = molecular target: Protein kinase C alpha type (Homo sapiens) (UniProt P17252); experiment: Activity against PKCalpha at 10 uM in the presence of 100 uM ATP relative to control
[13] = molecular target: Casein kinase II (Homo sapiens) (UniProt P67870+P68400+P19784); experiment: Activity against CK2 at 10 uM in the presence of 100 uM ATP relative to control; assay type: protein-complex assay
[14] = molecular target: Mitogen-activated protein kinase 14 (Homo sapiens) (UniProt Q16539); experiment: Activity against SAPK2-alpha at 10 uM in the presence of 100 uM ATP relative to control
Sequence of Mitogen-activated protein kinase 14 (Homo sapiens) (Q16539 whole entry): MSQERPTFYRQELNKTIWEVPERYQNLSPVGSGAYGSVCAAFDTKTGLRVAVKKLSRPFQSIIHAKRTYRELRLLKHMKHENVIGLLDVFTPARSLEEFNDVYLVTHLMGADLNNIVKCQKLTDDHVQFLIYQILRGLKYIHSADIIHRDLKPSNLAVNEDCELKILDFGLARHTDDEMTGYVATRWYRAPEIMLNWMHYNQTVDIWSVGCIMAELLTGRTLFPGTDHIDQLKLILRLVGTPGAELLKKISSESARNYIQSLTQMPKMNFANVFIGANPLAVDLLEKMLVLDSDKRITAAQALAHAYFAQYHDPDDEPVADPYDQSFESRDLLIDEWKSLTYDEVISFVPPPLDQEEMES

[15] = molecular target: Cyclin-dependent kinase 2/cyclin A (Homo sapiens) (UniProt P24941+P20248+P78396); experiment: Activity against CDK2/cyclinA at 10 uM in the presence of 100 uM ATP relative to control; assay type: protein-complex assay
[16] = molecular target: Mitogen-activated protein kinase 10 (Homo sapiens) (UniProt P53779); experiment: Activity against JNK3 at 10 uM in the presence of 100 uM ATP relative to control
Sequence of Mitogen-activated protein kinase 10 (Homo sapiens) (P53779 whole entry): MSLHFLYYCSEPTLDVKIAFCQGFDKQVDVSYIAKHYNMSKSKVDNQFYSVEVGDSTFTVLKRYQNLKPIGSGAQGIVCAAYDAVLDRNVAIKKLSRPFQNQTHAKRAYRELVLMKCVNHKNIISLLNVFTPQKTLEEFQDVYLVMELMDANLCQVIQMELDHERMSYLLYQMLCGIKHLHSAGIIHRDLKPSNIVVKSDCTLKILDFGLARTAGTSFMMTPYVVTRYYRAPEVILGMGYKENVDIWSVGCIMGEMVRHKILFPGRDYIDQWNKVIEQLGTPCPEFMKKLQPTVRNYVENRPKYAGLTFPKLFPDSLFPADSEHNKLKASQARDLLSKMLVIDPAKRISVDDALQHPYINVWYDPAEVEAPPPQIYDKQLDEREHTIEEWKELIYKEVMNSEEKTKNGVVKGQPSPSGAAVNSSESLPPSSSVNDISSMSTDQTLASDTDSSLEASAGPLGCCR

[17] = molecular target: CaM kinase II (Homo sapiens) (UniProt Q13557+Q13555+Q13554+Q9UQM7); experiment: Activity against CaMK2 at 10 uM in the presence of 100 uM ATP relative to control; assay type: protein assay

**Q.** Which results are given for `CCOC(=O)c1cnc2ccc(C(=O)OC)cc2c1Nc1cccc(C(C)=O)c1`?
**A.** inhibition [1]: 51%; pIC50 [2]: 4.30

**Q.** With `COc1ccc(O)c(-c2cc(-c3ccccc3Cl)n[nH]2)c1` as the compound, how does the pIC50 [2] read?
**A.** The pIC50 was 4.70.

**Q.** Which results are given for `COc1cccc(NC(=O)Nc2nnc(-c3ccncc3)s2)c1`?
**A.** Activity [3]: 113%; Activity [4]: 47%; Activity [5]: 11%; inhibition [1]: 41%; Activity [6]: 96%; Activity [7]: 138%; Activity [8]: 104%; Activity [9]: 104%; Activity [10]: 77%; Activity [11]: 69%; Activity [12]: 83%; pIC50 [2]: 5.30; Activity [13]: 110%; Activity [14]: 101%; Activity [15]: 96%; Activity [16]: 98%; Activity [17]: 98%

**Q.** `COc1ccc(O)c(-c2cc(-c3ccccc3Cl)[nH]n2)c1` was tested. Which inhibition [1] did it give?
**A.** Its inhibition is 43%.

**Q.** For `C=CCOc1ccc(Br)cc1/C=C1\SC(Nc2ccc(Cl)c(C(=O)O)c2)=NC1=O`, which inhibition [1] is on record?
**A.** Its inhibition is “inactive”.

**Q.** And the pIC50 [2]?
**A.** The pIC50 was 4.70.

**Q.** Which inhibition [1] does the source give for `CN1C(=O)/C(=C2\SC(Nc3ccc(F)cc3)=NC2=O)c2ccccc21` here?
**A.** The inhibition was 12%.

**Q.** And the pIC50 [2]?
**A.** The pIC50 was 4.30.

**Q.** With `Brc1ccc(Nc2nc(NCc3ccco3)c3ccccc3n2)cc1` as the compound, how does the inhibition [1] read?
**A.** Its inhibition is 8%.

**Q.** What about the pIC50 [2] of the same compound?
**A.** The pIC50 was 5.30.

**Q.** Which inhibition [1] does the source give for `CCOC(=O)c1ccc2ncc(C(=O)OCC)c(Nc3ccc(NC(C)=O)cc3)c2c1` here?
**A.** Its inhibition is 52%.

**Q.** And the pIC50 [2]?
**A.** Its pIC50 is 5.00.

**Q.** Which results are given for `COc1cc(/C=C2\C(=O)NN(c3ccc(Cl)c(Cl)c3)C2=O)ccc1O`?
**A.** Activity [3]: 105%; Activity [4]: 69%; Activity [5]: 36%; inhibition [1]: 82%; Activity [6]: 94%; Activity [7]: 122%; Activity [8]: 107%; Activity [9]: 99%; Activity [10]: 59%; Activity [11]: 71%; Activity [12]: 78%; pIC50 [2]: 5.60; Activity [13]: 61%; Activity [14]: 112%; Activity [15]: 90%; Activity [16]: 86%; Activity [17]: 72%

**Q.** Which results are given for `CCOC(=O)c1ccc2ncc(C(=O)OCC)c(Nc3ccc(C)c(Br)c3)c2c1`?
**A.** inhibition [1]: 13%; pIC50 [2]: 4.30

**Q.** Which inhibition [1] does the source give for `Cc1cccc(Nc2nc(-c3c(C)nc4ncccn34)cs2)c1` here?
**A.** Its inhibition is 25%.

**Q.** And the pIC50 [2]?
**A.** The pIC50 was less than 4.30.

**Q.** How did the inhibition [1] turn out when `COc1cc(/C=C2\C(=O)NN(c3cccc(Cl)c3)C2=O)ccc1O` was run?
**A.** The inhibition was 74%.

**Q.** And the pIC50 [2]?
**A.** The pIC50 was less than 4.30.
